Earlier results on 1 substance are cited in patent US20160022811A1 (Teva Pharmaceutical Industries Ltd., priority 2013, published 2016).

The subject of the data set is relapsing-remitting MS (RRMS). The conditions noted are these: registration trials, comparison with placebo.

As to “L-glutamic acid polymer with L-alanine, L-lysine, L-tyrosine, acetate (salt) [glatiramer acetate]”, the “reduction of relapse rate” value is “about one third”.
